Assay results as given in patent US20240309016A1, “MACROCYCLIC HETEROCYCLE COMPOUNDS AND USE THEREOF” (TAKEDA PHARMACEUTICAL COMPANY LIMITED, priority 2023, published 2024).

target: T1, human OX2 receptor (Homo sapiens, UniProt O43614); assay: Measurement of orexin type 2 receptor agonist activity (Experimental Example 2; Fluo-4 AM calcium fluorescence, FDSS μCELL); type: cell-based; settings: compound at 3 μM; CHO cells expressing human OX2 receptor; DMSO = 0%, 10 nM orexin A (human) = 100%
T1 construct: expressed in transfected cells
T1 sequence (O43614 1-444): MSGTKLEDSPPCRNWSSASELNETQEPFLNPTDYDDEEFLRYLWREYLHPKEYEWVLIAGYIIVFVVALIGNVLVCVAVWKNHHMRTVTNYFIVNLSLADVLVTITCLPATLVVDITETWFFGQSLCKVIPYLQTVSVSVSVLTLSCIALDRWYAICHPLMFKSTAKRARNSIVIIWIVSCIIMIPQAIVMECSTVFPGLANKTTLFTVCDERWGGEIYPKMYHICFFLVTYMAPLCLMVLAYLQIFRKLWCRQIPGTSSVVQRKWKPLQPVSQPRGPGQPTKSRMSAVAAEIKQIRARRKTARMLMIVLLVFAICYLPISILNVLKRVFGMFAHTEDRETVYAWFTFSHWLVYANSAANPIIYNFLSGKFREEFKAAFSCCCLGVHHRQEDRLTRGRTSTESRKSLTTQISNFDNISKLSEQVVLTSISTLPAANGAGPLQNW
Experimental: In order to obtain cell clones that stably express human orexin type 2 receptor, human orexin type 2 (residues 1-444, NCBI Reference Sequence: AK314279) was constructed in a pcDNA3.1 (+) vector (Invitrogen) to express in mammalian cells. This plasmid DNA was transfected into CHO-K1 cells by electroporation, and stable clones were obtained by limiting dilution using resistance to G418 as a selection marker.
CHO cells in which human OX2 receptor was forcibly expressed were seeded at 10,000 cells/well into a 384-well black transparent bottom plate (BD falcon), and were incubated at 37° C., 5% CO2 for 1 day after incubation at room temperature for 30 minutes. After removing the cell plate medium, assay buffer containing calcium indicator A (HBSS (Thermo Fisher Scientific), 20 mM HEPES (Thermo Fisher Scientific), 0.1% BSA (Sigma-Aldrich), 2.5 μg/mL Fluo-4 AM (Dojin Kagaku), 0.08% Pluronic F127 (Dojin Kagaku), 1.25 mM probenecid (Dojin Kagaku)) was added at 30 μL/well. After incubation in a 5% CO2 incubator at 37° C. for 30 minutes, it was incubated at room temperature for another 30 minutes. Add 10 μL/well of the test compound diluted with assay buffer B (HBSS, 20 mM HEPES, 0.1% BSA), and use FDSS μCELL (Hamamatsu Photonics) to measure the fluorescence value every 1 second for 1 minute, and then every 2 seconds for 1 minute. It was measured for 1 minute and 40 seconds. The amount of fluorescence value when DMSO is added instead of the test compound is defined as 0%, and the amount of fluorescence value when orexin A (human) (Peptide Institute) with a final concentration of 10 nM is added is defined as 100%. The activity (%) of the test compound was calculated. Table 2-1, 2-2, 2-3, and 2-4 show the activity of each compound at a concentration of 3 μM.

Row | Molecule | OX2R agonist activity (3 μM, %) [%]
1 | CCS(=O)(=O)N[C@@H]1[C@@H]2Cc3cccc(c3F)Oc3nc(ccc3Cl)CNC(=O)N2CC1(F)F [Example 17, N-[(15aS,16R)-7-chloro-17,17,20-trifluoro-1-oxo-2,3,15a,16,17,18-hexahydro-1H,15H-4,8-(azeno)-14,10-(metheno)pyrrolo[1,2-j][1,8,10]oxadiazacyclo-heptadecin-16-yl]ethanesulfonamide] | 100
2 | Cc1ccc2nc1Oc1cccc(c1F)C[C@H]1[C@@H](NS(=O)(=O)CF)C(F)(F)CN1C(=O)NC2 [Example 19, 1-fluoro-N-[(15aS,16R)-17,17,20-trifluoro-7-methyl-1-oxo-2,3,15a,16,17,18-hexahydro-1H,15H-4,8-(azeno)-10,14-(metheno)pyrrolo[1,2-j][1,8,10]oxadiazacyclo-heptadecin-16-yl]methanesulfonamide] | 109
3 | N-[(15aS,16R)-17,17- difluoro-7-methyl-1-oxo- 2,3,15a,16,17,18-hexahydro- 1H,15H-4,8-(azeno)-10,14- (metheno)pyrrolo[1,2- j][1,8,10]oxadiazacyclo- heptadecin-16- yl]ethanesulfonamide [Example 6] | 99
4 | CCS(=O)(=O)N[C@H]1[C@@H](F)CN2C(=O)NCc3ccc(F)c(n3)Oc3cccc(c3F)C[C@@H]12 [Example 31, N-[(15aS,16R,17S)-7,17,20-trifluoro-1-oxo-2,3,15a,16,17,18-hexahydro-1H,15H-4,8-(azeno)-14,10-(metheno)pyrrolo[1,2-j][1,8,10]oxadiazacyclo-heptadecin-16-yl]ethanesulfonamide] | 102
5 | CCS(=O)(=O)N[C@@H]1[C@@H]2Cc3cccc(c3F)Oc3nc(c(F)cc3C)CNC(=O)N2CC1(F)F [Example 32, N-[(15aS,16R)-5,17,17,20-tetrafluoro-7-methyl-1-oxo-2,3,15a,16,17,18-hexahydro-1H,15H-4,8-(azeno)-14,10-(metheno)pyrrolo[1,2-j][1,8,10]oxadiazacyclo-heptadecin-16-yl]ethanesulfonamide] | 101
6 | Cc1ccc2nc1Oc1cccc(c1F)C[C@H]1[C@@H](NS(=O)(=O)C(F)F)C(F)(F)CN1C(=O)NC2 [Example 43, 1,1-difluoro-N-[(15aS,16R)-17,17,20-trifluoro-7-methyl-1-oxo-2,3,15a,16,17,18-hexahydro-1H,15H-4,8-(azeno)-10,14-(metheno)pyrrolo[1,2-j][1,8,10]oxadiazacyclo-heptadecin-16-yl]methanesulfonamide] | 101
7 | CCS(=O)(=O)N[C@@H]1[C@@H]2Cc3cccc(c3F)Oc3nc(c(F)cc3F)CNC(=O)N2CC1(F)F [Example 21, N-[(15aS,16R)-5,7,17,17,20-pentafluoro-1-oxo-2,3,15a,16,17,18-hexahydro-1H,15H-4,8-(azeno)-14,10-(metheno)pyrrolo[1,2-j][1,8,10]oxadiazacyclo-heptadecin-16-yl]ethanesulfonamide] | 100
8 | CCS(=O)(=O)N[C@H]1[C@@H](F)CN2C(=O)NCc3ccc(C(F)F)c(n3)Oc3cccc(c3F)C[C@@H]12 [Example 27, N-[(15aS,16R,17S)-7-(difluoromethyl)-17,20-difluoro-1-oxo-2,3,15a,16,17,18-hexahydro-1H,15H-8,4-(azeno)-10,14-(metheno)pyrrolo[1,2-j][1,8,10]oxadiazacyclo-heptadecin-16-yl]ethanesulfonamide] | 102

Results, then the molecule that gave them:

Row | OX2R agonist activity (3 μM, %) [%] | Molecule
9 | 99 | CCS(=O)(=O)N[C@H]1[C@@H](F)CN2C(=O)COc3ncc(C)c(n3)Oc3cccc(c3)C[C@@H]12 [Example 71, N-[(15aS,16R,17S)-17-fluoro-7-methyl-1-oxo-1,2,15a,16,17,18-hexahydro-15H-4,8-(azeno)-10,14-(metheno)pyrrolo[2,1-n][1,7,3,15]dioxadiazacyclo-heptadecin-16-yl]ethanesulfonamide]
10 | 102 | CCc1ccc2nc1Oc1cccc(c1F)C[C@H]1[C@@H](NS(C)(=O)=O)C(F)(F)CN1C(=O)NC2 [Example 79, N-[(15aS,16R)-7-ethyl-17,17,20-trifluoro-1-oxo-2,3,15a,16,17,18-hexahydro-1H,15H-4,8-(azeno)-14,10-(metheno)pyrrolo[1,2-j][1,8,10]oxadiazacyclo-heptadecin-16-yl]methanesulfonamide]
11 | 67 | CCS(=O)(=O)N[C@@H]1[C@@H]2Cc3cccc(c3F)Oc3nc(ccc3C)N(C)CC(=O)N2CC1(F)F [Example 48, N-[(15aS,16R)-17,17,20-trifluoro-3,7-dimethyl-1-oxo-2,3,15a,16,17,18-hexahydro-1H,15H-4,8-(azeno)-14,10-(metheno)pyrrolo[1,2-j][1,7,10]oxadiazacyclo-heptadecin-16-yl]ethanesulfonamide]
12 | 106 | Cc1cnc2nc1Oc1cccc(c1F)C[C@H]1[C@@H](NS(C)(=O)=O)C(F)(F)CN1C(=O)[C@@H]1CCCN21 [Example 59, N-[(16aS,17R,21aS)-18,18,22-trifluoro-8-methyl-21-oxo-2,3,16a,17,18,19,21,21a-octahydro-1H,16H-5,9-(azeno)-11,15-(metheno)dipyrrolo[1,2-g:1′,2′-j][1,5,7,10]oxatriazacyclo-heptadecin-17-yl]methanesulfonamide]
13 | 97 | CCS(=O)(=O)N[C@H]1[C@@H](F)CN2C(=O)COc3ccc(C)c(n3)Oc3cccc(c3)C[C@@H]12 [Example 78, N-[(15aS,16R,17S)-17-fluoro-7-methyl-1-oxo-1,2,15a,16,17,18-hexahydro-15H-4,8-(azeno)-14,10-(metheno)pyrrolo[1,2-d][1,12,4]dioxazacyclo-heptadecin-16-yl]ethanesulfonamide]
14 | 106 | CCS(=O)(=O)N[C@@H]1[C@@H]2Cc3cccc(c3F)Oc3nc(cnc3C)CCC(=O)N2CC1(F)F [Example 61, N-[(1R,19aS)-2,2,20-trifluoro-11-methyl-5-oxo-2,3,6,7,19,19a-hexahydro-1H,5H-8,12-(azeno)-18,14-(metheno)pyrrolo[1,2-j][1,4,10]oxadiazacyclo-heptadecin-1-yl]ethanesulfonamide]
15 | 106 | CCS(=O)(=O)N[C@H]1[C@@H](F)CN2C(=O)COc3ccc(Cl)c(n3)Oc3cc(ccc3F)C[C@@H]12 (relative stereo) [Example 91, N-[rel-(15aR,16S,17R)-7-chloro-11,17-difluoro-1-oxo-1,2,15a,16,17,18-hexahydro-15H-4,8-(azeno)-14,10-(metheno)pyrrolo[1,2-d][1,12,4]dioxazacyclohepta-decin-16-yl]ethanesulfonamide (optical isomer)]
16 | 96 | CO[C@@H]1C[C@H]2C(=O)N3CC(F)(F)[C@H](NS(C)(=O)=O)[C@@H]3Cc3cccc(c3F)Oc3nc(ncc3C)N2C1 [Example 83, N-[(2R,16aS,17R,21aS)-18,18,22-trifluoro-2-methoxy-8-methyl-21-oxo-2,3,16a,17,18,19,21,21a-octahydro-1H,16H-5,9-(azeno)-11,15-(metheno)dipyrrolo[1,2-g:1′,2′-j][1,5,7,10]oxatriazacyclo-heptadecin-17-yl]methanesulfonamide]
17 | 105 | CCS(=O)(=O)N[C@@H]1[C@@H]2Cc3cccc(c3F)Oc3nc(ccc3C)OCC(=O)N2CC1(F)F [Example 45, N-[(15aS,16R)-17,17,20-trifluoro-7-methyl-1-oxo-1,2,15a,16,17,18-hexahydro-15H-4,8-(azeno)-14,10-(metheno)pyrrolo[1,2-d][1,12,4]dioxazacyclo-heptadecin-16-yl]ethanesulfonamide]
18 | 103 | CS(=O)(=O)N[C@@H]1[C@@H]2Cc3ccc(F)c(c3)Oc3nc(ccc3Cl)OCC(=O)N2CC1(F)F (relative stereo) [Example 95, N-[rel-(15aS,16R)-7-chloro-11,17,17-trifluoro-1-oxo-1,2,15a,16,17,18-hexahydro-15H-4,8-(azeno)-14,10-(metheno)pyrrolo[1,2-d][1,12,4]dioxazacyclo-heptadecin-16-yl]methanesulfonamide (optical isomer)]
